Results taken from PubChem BioAssay (NCI).
“And” between values parts separate entries of the source, which are not always exact repeats. Equal entries are not always repeated.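 At the GI50, growth is halved. TGI: total growth inhibition.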

Columns and labels:
Experiment in all cases: DTP human tumour cell line panel, 384-well format
786-0 renal = system: 786-0 renal
A498 renal = system: A498 renal
A549 NSCLC = system: A549 NSCLC
ACHN renal = system: ACHN renal
BT-549 breast = system: BT-549 breast
CAKI-1 renal = system: CAKI-1 renal
CCRF-CEM leukemia = system: CCRF-CEM leukemia
COLO 205 colon = system: COLO 205 colon
DU-145 prostate = system: DU-145 prostate
EKVX NSCLC = system: EKVX NSCLC
HCC-2998 colon = system: HCC-2998 colon
HCT-116 colon = system: HCT-116 colon
HCT-15 colon = system: HCT-15 colon
HL-60(TB) leukemia = system: HL-60(TB) leukemia
HOP-62 NSCLC = system: HOP-62 NSCLC
HOP-92 NSCLC = system: HOP-92 NSCLC
HS 578T breast = system: HS 578T breast
HT29 colon = system: HT29 colon
IGROV1 ovarian = system: IGROV1 ovarian
K-562 leukemia = system: K-562 leukemia
KM12 colon = system: KM12 colon
LOX IMVI melanoma = system: LOX IMVI melanoma
M14 melanoma = system: M14 melanoma
MALME-3M melanoma = system: MALME-3M melanoma
MCF7 breast = system: MCF7 breast
MDA-MB-231 breast = system: MDA-MB-231 breast
MDA-MB-435 melanoma = system: MDA-MB-435 melanoma
MDA-MB-468 breast = system: MDA-MB-468 breast
MOLT-4 leukemia = system: MOLT-4 leukemia
NCI-H226 lung = system: NCI-H226 lung

Which results are given for Cn1cc(-c2nc(N[C@@H]3CCCC[C@@H]3N)c(F)c3c2C(=O)NC3)cn1?
GI50 ([…]-0 renal): 5.53 µM and 4.81 µM; TGI (786-0 renal): 17.9 µM and 18.3 µM; GI50 (A498 renal): 0.559 µM and 1.3 µM; TGI (A498 renal): 10.4 µM and 8.94 µM; GI50 (A549 NSCLC): 4.08 µM and 6.73 µM; TGI (A549 NSCLC): 33.2 µM and 32.9 µM; GI50 (ACHN renal): 2 µM and 6.59 µM; TGI (ACHN renal): 59.2 µM and > 100 µM; GI50 (BT-549 breast): 2.17 µM and 5.01 µM; TGI (BT-549 breast): 5.18 µM and 15.9 µM; GI50 (CAKI-1 renal): 3.22 µM and 4.17 µM; TGI (CAKI-1 renal): 19.7 µM and 19.3 µM; GI50 (CCRF-CEM leukemia): 1.48 µM and 1.75 µM; TGI (CCRF-CEM leukemia): 2.97 µM and 3.26 µM; GI50 (COLO 205 colon): 1.45 µM and 1.85 µM; TGI (COLO 205 colon): 2.9 µM and 3.53 µM; GI50 (DU-145 prostate): 4.08 µM and 9.76 µM; TGI (DU-145 prostate): 30.8 µM and 38.1 µM; GI50 (EKVX NSCLC): 5.37 µM and 12.8 µM; TGI (EKVX NSCLC): 29.5 µM and 62.4 µM; TGI (HCC-2998 colon): 20.6 µM and 38.7 µM; GI50 (HCT-116 colon): 2.04 µM and 2.98 µM; TGI (HCT-116 colon): 17.3 µM and 17.9 µM; GI50 (HCT-15 colon): 5.33 µM and 10.6 µM; TGI (HCT-15 colon): 28.3 µM and > 100 µM; GI50 (HL-60(TB) leukemia): 3.18 µM and 2.76 µM; TGI (HL-60(TB) leukemia): 14.7 µM and 13.3 µM; GI50 (HOP-62 NSCLC): 2.31 µM and 4.56 µM; TGI (HOP-62 NSCLC): 9.99 µM and 16.5 µM; GI50 (HOP-92 NSCLC): 3.89 µM and 5.41 µM; TGI (HOP-92 NSCLC): 15.6 µM and 18.3 µM; GI50 (HS 578T breast): 2.21 µM and 11 µM; TGI (HS 578T breast): 12.1 µM and 25.5 µM; GI50 (HT29 colon): 4.79 µM and 7.58 µM; TGI (HT29 colon): 58.5 µM and 26.6 µM; GI50 (IGROV1 ovarian): 2.99 µM and 10.9 µM; TGI (IGROV1 ovarian): 28.9 µM and 90.9 µM; GI50 (K-562 leukemia): 2.93 µM and 3.44 µM; TGI (K-562 leukemia): 14 µM and 18.6 µM; GI50 (KM12 colon): 0.339 µM and 0.445 µM; TGI (KM12 colon): 25.2 µM and 45.1 µM; GI50 (LOX IMVI melanoma): 1.85 µM and 3.58 µM; TGI (LOX IMVI melanoma): 3.98 µM and 12.7 µM; GI50 (M14 melanoma): 0.615 µM and 1.56 µM; TGI (M14 melanoma): 25.7 µM and 14.5 µM; GI50 (MALME-3M melanoma): 6.89 µM and 4.15 µM; TGI (MALME-3M melanoma): 22.2 µM and 26 µM; GI50 (MCF7 breast): 2.89 µM and 19.2 µM; TGI (MCF7 breast): 36.5 µM and 81.2 µM; GI50 (MDA-MB-231 breast): 5 µM and 10.4 µM; TGI (MDA-MB-231 breast): 17.7 µM and 22.9 µM; GI50 (MDA-MB-435 melanoma): 4.49 µM and 6.35 µM; TGI (MDA-MB-435 melanoma): > 100 µM; GI50 (MDA-MB-468 breast): 3.08 µM and 4.3 µM; TGI (MDA-MB-468 breast): 6.44 µM and 11.7 µM; GI50 (MOLT-4 leukemia): 0.299 µM and 1.14 µM; GI50 (NCI-H226 lung): 2.08 µM and 4.38 µM
